# Measured values published in patent US12391674B2, “Heterocyclic compounds for the treatment of epilepsy” (OTSUKA PHARMACEUTICAL CO., LTD., priority 2018, dated 2025).
# Like-named read-outs stand apart in the source and are kept apart here.
# Columns and labels:
# ICR mice = test: Rotarod test (motor coordination); type: in vivo, mouse; conditions: oral, rotarod 1 hour after administration
# Method in brief: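 Motor coordination was assessed in male ICR mice (Japan SLC, Inc., 5-6 weeks old, 8 per group). Animals were first trained to stay for 2 minutes on a rotarod turning at a fixed 15 rpm. One hour after oral dosing, each mouse was placed on a rod accelerating from 4 rpm to 40 rpm over 5 minutes, and latency to fall was recorded for up to 200 seconds. Latencies were expressed relative to the mean of the solvent-treated group.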
# DBA/2 mice = test: Audiogenic seizure model; type: in vivo; conditions: Mus musculus, read-out: Seizure suppression
# Method in brief: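 Male and female DBA/2 mice (3 weeks old, 8/group) dosed orally at 30 mg/kg in 5% gum arabic; 1 h later exposed to 12.6 kHz, 100-110 dB tone for 1 min or until tonic seizure. Maximum seizure score (0–4) recorded; suppression rate graded A (≥90%), B (70–<90%), C (50–<70%).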
# [1] = DBA/2 mice, oral, dose 30 mg/kg, auditory stimulation 1 hour after administration
# [2] = DBA/2 mice, oral, auditory stimulation 1 hour after administration
SMILES,Motor dysfunction (ICR mice; dose 30 mg/kg),inhibition in vivo at 30 mg/kg (DBA/2 mice; [1]),Motor dysfunction (ICR mice; dose 5 mg/kg),inhibition in vivo at 5 mg/kg (DBA/2 mice; [2]),other results
"CC1CC(=O)NC(=O)N1c1ccc(Oc2ccccc2)cc1 (centres unmarked) [Example 328, 6-Methyl-1-(4-Phenoxyphenyl)Dihydropyrimidine-2,4 (1H,3H)-Dione]",A (a coordination disorder of 25% or less),> 90%,–,–,–
"c1ccc(Oc2ncc(-c3ccc4[nH]ccc4c3)cn2)cc1 [Example 262, 5-(2-Phenoxypyrimidin-5-Yl)-1H-Indole]",–,–,A (a coordination disorder of 25% or less),> 90%,–
COc1cccc(Oc2ncc(-c3ccc4nccn4c3)cn2)c1 [Example 162],–,–,A (a coordination disorder of 25% or less),> 90%,–
c1ccc(Oc2ncc(-c3cn4ccnc4cn3)cn2)cc1 [Example 148],A (a coordination disorder of 25% or less),> 90%,–,–,–
"O=C1CCN(c2ccc(Cc3cccc(F)c3)cc2)C(=O)N1 [Example 305, 1-(4-(3-Fluorobenzyl)Phenyl)Dihydropyrimidine-2,4 (1H,3H)-Dione]",A (a coordination disorder of 25% or less),> 90%,–,–,–
Nc1cncc(-c2cnc(Oc3ccccc3)nc2)c1 [Example 58],A (a coordination disorder of 25% or less),> 90%,–,–,–
Cc1cc(-c2cnc(Oc3ccccc3)nc2)ccn1 [Example 22],–,–,A (a coordination disorder of 25% or less),> 90%,–
Cc1ccc(-c2cnc(Oc3ccccc3)nc2)cn1 [Example 8],–,–,–,–,Motor dysfunction (ICR mice; dose 10 mg/kg): A (a coordination disorder of 25% or less); inhibition in vivo at 10 mg/kg (DBA/2 mice; [2]): > 90%
COc1cccc(Oc2ccc(N3CCC(=O)NC3=O)cc2)c1 [Example 311],A (a coordination disorder of 25% or less),70 to 90%,–,–,–
c1ccc(Oc2ncc(N3CCOCC3)cn2)cc1 [Example 224],A (a coordination disorder of 25% or less),> 90%,–,–,–
FC(F)(F)Oc1cccc(Oc2ncc(-c3ccc4nccn4c3)cn2)c1 [Example 171],–,–,A (a coordination disorder of 25% or less),> 90%,–
"O=C1CCN(c2ccc(Oc3cccc(F)c3)cc2)C(=O)N1 [Example 302, 1-(4-(3-Fluorophenoxy)Phenyl)Dihydropyrimidine-2,4 (1H,3H)-Dione]",A (a coordination disorder of 25% or less),> 90%,–,–,–
Cc1cn2ccc(-c3cnc(Oc4ccccc4)nc3)cc2n1 [Example 181],–,–,A (a coordination disorder of 25% or less),70 to 90%,–
FC(F)(F)c1ccc(-c2cnc(Oc3ccccc3)nc2)cn1 [Example 27],A (a coordination disorder of 25% or less),> 90%,–,–,–
c1ccc(Oc2ncc(-c3ccc4c(c3)OCO4)cn2)cc1 [Example 236],A (a coordination disorder of 25% or less),> 90%,–,–,–
O=c1ccc(-c2cnc(Oc3cc(F)cc(F)c3)nc2)n[nH]1 [Example 102],–,–,–,–,Motor dysfunction (ICR mice; dose 10 mg/kg): A (a coordination disorder of 25% or less); inhibition in vivo at 10 mg/kg (DBA/2 mice; [2]): > 90%
"c1ccc(Oc2ncc(-c3ccc4cnnn4c3)cn2)cc1 [Example 173, 6-(2-Phenoxypyrimidin-5-Yl)-[1,2,3]Triazolo[1,5-a]Pyridine]",–,–,A (a coordination disorder of 25% or less),> 90%,–
c1ccc(Oc2ncc(-c3ccc4[nH]cnc4c3)cn2)cc1 [Example 258],–,–,A (a coordination disorder of 25% or less),> 90%,–
O=C1CCN(c2ccc(Cc3ccc(OC(F)(F)F)cc3)cc2)C(=O)N1 [Example 340],A (a coordination disorder of 25% or less),70 to 90%,–,–,–
Cc1cc(Oc2cccc(OC(F)(F)F)c2)ccc1N1CCC(=O)NC1=O [Example 336],A (a coordination disorder of 25% or less),70 to 90%,–,–,–
O=C1CCN(c2ccc(Oc3ccccc3F)cc2)C(=O)N1 [Example 309],A (a coordination disorder of 25% or less),> 90%,–,–,–
"O=c1ccc(-c2cnc(Oc3ccccc3)nc2)n[nH]1 [Example 91, 6-(2-Phenoxypyrimidin-5-Yl)Pyridazin-3 (2H)-One]",–,–,A (a coordination disorder of 25% or less),> 90%,–
"Nc1ccc(-c2cnc(Oc3ccccc3)nc2)cc1 [Example 239, 4-(2-Phenoxypyrimidin-5-Yl) Aniline]",A (a coordination disorder of 25% or less),> 90%,–,–,–

SMILES,Motor dysfunction (ICR mice; dose 30 mg/kg),inhibition in vivo at 30 mg/kg (DBA/2 mice; [1]),Motor dysfunction (ICR mice; dose 5 mg/kg),inhibition in vivo at 5 mg/kg (DBA/2 mice; [2]),other results
Nc1ccc(-c2cnc(Oc3cccc(C(F)(F)F)c3)nc2)nn1 [Example 40],–,–,–,–,"Motor dysfunction (ICR mice; dose 3 mg/kg): A (a coordination disorder of 25% or less); inhibition in vivo at 3 mg/kg (DBA/2 mice; DBA/2 mice, oral, dose 3 mg/kg, auditory stimulation 1 hour after administration): > 90%"
Nc1ccc(-c2cnc(Oc3cccnc3)nc2)cn1 [Example 90],–,–,A (a coordination disorder of 25% or less),70 to 90%,–
Fc1ccccc1Oc1ncc(-c2ccc3nccn3c2)cn1 [Example 121],–,–,A (a coordination disorder of 25% or less),> 90%,–
Nc1ccc(-c2cnc(Oc3ccccc3F)nc2)nn1 [Example 26],–,–,A (a coordination disorder of 25% or less),> 90%,–
Fc1cccc(Oc2ncc(-c3ccc4nccn4c3)cn2)c1 [Example 122],–,–,A (a coordination disorder of 25% or less),> 90%,–
Cc1cc(Oc2ccccc2)ncc1N1CCC(=O)NC1=O [Example 325],A (a coordination disorder of 25% or less),70 to 90%,–,–,–
"COc1ccc(-c2cnc(Oc3ccccc3)nc2)cn1 [Example 6, 5-(6-Methoxypyridin-3-Yl)-2-Phenoxypyrimidine]",–,–,A (a coordination disorder of 25% or less),> 90%,–
c1ccc(Oc2ncc(-c3ccncn3)cn2)cc1 [Example 10],A (a coordination disorder of 25% or less),> 90%,–,–,–
N#Cc1cc(-c2cnc(Oc3ccccc3)nc2)ccn1 [Example 348],–,–,–,–,Motor dysfunction (ICR mice; dose 1 mg/kg): A (a coordination disorder of 25% or less); inhibition in vivo at 1 mg/kg (DBA/2 mice; [2]): > 90%
Fc1ccc(-c2cnc(Oc3ccccc3)nc2)cn1 [Example 33],A (a coordination disorder of 25% or less),–,–,> 90%,–
"c1ccc(Oc2ncc(-c3cccnc3)cn2)cc1 [Example 7, 2-Phenoxy-5-(Pyridin-3-Yl)Pyrimidine]",–,–,A (a coordination disorder of 25% or less),> 90%,–
NC(=O)c1ccc(-c2cnc(Oc3ccccc3)nc2)cc1 [Example 243],–,–,A (a coordination disorder of 25% or less),> 90%,–
"O=C1Cc2nc(-c3cnc(Oc4ccccc4)nc3)ccc2N1 [Example 172, 5-(2-Phenoxypyrimidin-5-Yl)-1H-Pyrrolo[3,2-b]Pyridin-2 (3H)-One]",–,–,A (a coordination disorder of 25% or less),> 90%,–
FC(F)(F)c1nnc2ccc(-c3cnc(Oc4ccccc4)nc3)cn12 [Example 279],–,–,–,–,Motor dysfunction (ICR mice; dose 1 mg/kg): A (a coordination disorder of 25% or less); inhibition in vivo at 1 mg/kg (DBA/2 mice; [2]): > 90%
"COc1ccc(-c2cnc(Oc3cccc(F)c3)nc2)nn1 [Example 4, 3-(2-(3-Fluorophenoxy)Pyrimidin-5-Yl)-6-Methoxypyridazine]",–,–,A (a coordination disorder of 25% or less),> 90%,–
"Nc1ccc(-c2cnc(Oc3cccc(F)c3)nc2)nn1 [Example 24, 6-(2-(3-Fluorophenoxy)Pyrimidin-5-Yl)Pyridazin-3-Amine]",–,–,A (a coordination disorder of 25% or less),> 90%,–
O=C1CCN(c2ccc(Cc3ccccc3)cc2)C(=O)N1 [Example 304],A (a coordination disorder of 25% or less),> 90%,–,–,–
c1ccc(Oc2ncc(-c3ccn4nccc4n3)cn2)cc1 [Example 134],–,–,B (a coordination disorder of more than 25% and 50% or less),> 90%,–
Nc1cc(-c2cnc(Oc3ccccc3)nc2)ccn1 [Example 55],A (a coordination disorder of 25% or less),–,–,–,"inhibition in vivo at 30 mg/kg (DBA/2 mice; po, 1 h): > 90%"
O=C1CCN(c2ccc(Oc3ccccc3)cc2)C(=O)N1 [Example 303],A (a coordination disorder of 25% or less),> 90%,–,–,–
c1ccc(Oc2ncc(-c3ccc4ccnn4c3)cn2)cc1 [Example 151],–,–,A (a coordination disorder of 25% or less),> 90%,–
c1ccc(Oc2ncc(-c3cccc4cnccc34)cn2)cc1 [Example 248],–,–,A (a coordination disorder of 25% or less),> 90%,–
Fc1ccc(Oc2ncc(-c3ccc4nccn4c3)cn2)cc1 [Example 120],–,–,B (a coordination disorder of more than 25% and 50% or less),> 90%,–
